Measured values: patent US8624027B2, “Combination therapy for treating cancer and diagnostic assays for use therein” (AbbVie Inc., priority 2005, dated 2014)
Like-named read-outs stand apart in the source and are kept apart here.

Legend:
[1] = target: T1, Bcl-2 protein (Homo sapiens, UniProt P10415, DELINS35-91DVEENRTEAPEGTESE, form not given); experiment: Bcl-2 binding affinity, fluorescence polarization with fluorescein-labeled BAX peptide; details: Wang's equation, read-out: Target Binding Affinity Ki (Bcl-2)
T1 construct: fused on or other part: A short piece of the Bcl-xL (Q07817) loop replaces Bcl-2 loop residues 35-91; The C-terminal membrane anchor is absent

[2] = target: Bcl-XL protein (Homo sapiens, UniProt Q07817); experiment: Bcl-XL binding affinity, fluorescence polarization with fluorescein-labeled BAD peptide; details: Wang's equation, read-out: Target Binding Affinity Ki (Bcl-XL)
[3] = test system: NCI-H146 human small cell lung carcinoma cells; experiment: Cellular efficacy in human tumor cell line (MTS viability assay); type: cell-based; details: NCI-H146, 10% human serum, 48 hours
Description: NCI-H146 (ATCC, Manassas, Va.) human small cell lung carcinoma cells were plated 50,000 cells per well in 96-well tissue culture plates in a total volume of 100 μL tissue culture medium supplemented with 10% human serum (Invitrogen, Carlsbad, Calif.) instead of fetal bovine serum and treated with a 2-fold serial dilution of the compounds of interest from 10 μM to 0.020 μM. Each concentration was tested in duplicate at least 3 separate times. The number of viable cells following 48 hours of compound treatment was determined using the CellTiter 96® AQueous non-radioactive cell proliferation MTS assay according to manufacturer's recommendations (Promega Corp., Madison, Wis.).

[4] = Pharmacokinetic evaluation in rat; type: in vivo; details: male, Sprague-Dawley, plasma; for AUC / Cmax: 5 mg/kg, oral; for AUC: Table 3, read-out: Pharmacokinetic area under the plasma concentration Curve (rat) AUC; for Cmax: Table 3, read-out: Pharmacokinetic peak plasma concentration (rat) Cmax; for AUC(0-inf): single 5 mg/kg oral dose, Table 1, read-out: Pharmacokinetic area under the plasma concentration Curve (rat) AUC0-∞
Description: The pharmacokinetic behavior of compounds of this disclosure was determined following a single 2 mg/kg intravenous or 5 mg/kg oral dose in male Sprague-Dawley derived rats (n=3 per group). The compounds were prepared as 2 mg/mL solution in a 10% DMSO in PEG-400 formulation for both oral and intravenous administration. The 1 mL/kg intravenous dose was administered as a slow bolus (about 1-2 minutes) in the jugular vein of a rat under light ether anesthetic. The oral dose was administered by gavage. Serial blood samples were obtained from a tail vein of each rat prior 0.1 (IV only), 0.25, 0.5, 1, 1.5, 2, 3, 4, 6, 8 and 24 hours after dosing. The heparinized samples were thoroughly mixed and placed in an ice bath. Plasma was separated by centrifugation and stored frozen prior to analysis.
The compounds of interest were separated from the plasma using protein precipitation with acetonitrile. A plasma (100-200 μL, sample or spiked standard) aliquot was combined with 50 μL of internal standard (structurally related analog prepared in acetonitrile) and 1 ml acetonitrile in a 96-well polypropylene deep well plate. The plates were vortexed for 30 seconds followed by centrifugation (3500 rpm×15 minutes, 4° C.). In an automated manner, the supernatant was transferred to a clean 96-well plate. The samples were evaporated to near dryness on a Micro-Vap™ under a stream of dry nitrogen over low heat (˜37° C.). The samples were reconstituted vortexing with 0.2 mL 5% DMSO in acetonitrile. A 0.1-0.2 ml aliquot of acetonitrile: 0.1% trifluoroacetic acid (20:80, by volume) was added to each well, followed by an additional 30 second vortexing. The plates were centrifuged (3500 rpm×15 minutes, 4° C.) prior to HPLC-MS/MS analysis. Samples were analyzed simultaneously with spiked plasma standards. All samples from each study were analyzed as a single batch on the LC-MS/MS.
The compounds of interest and the internal standard were separated from each other and co-extracted contaminants on a 50×3 mm Keystone Betasil CN 5 μm column with an acetonitrile: 0.1% trifluoroacetic acid mobile phase (50:50, by volume) at a flow rate of 0.7 ml/min. Analysis was performed on a Sciex API 300™ Biomolecular Mass Analyzer using a heated nebulizer interface. Peak areas of the title compounds and internal standards were determined using the Sciex MacQuan™ software. Calibration curves were derived from peak area ratio (parent drug/internal standard) of the spiked rat plasma standards using least squares linear regression of the ratio versus the theoretical concentration. The methods were generally linear over the range of the standard curve (correlation coefficients >0.99) with an estimated quantitation limit of 0.01 μg/mL. The plasma concentration data for each animal were submitted to multi-exponential curve fitting using WinNonlin. The area under the plasma concentration-time curve from 0 to t hours (time of the last measurable plasma concentration) after dosing (AUC0-t) was calculated using the linear trapezoidal rule for the plasma concentration-time profiles. The residual area extrapolated to infinity, determined as the final measured plasma concentration (Ct) divided by the terminal elimination rate constant (β), was added to AUC0-t to produce the total area under the curve (AUC0-∞). Ki values shown in the tables below were determined using Wang's equation (Wang Z X., An Exact Mathematical Expression For Describing Competitive Binding Of Two Different Ligands To A Protein Molecule. FEBS Lett. 1995; 360:111-4)).

[5] = Table 1, read-out: NCI-H146 Cellular Efficacy EC50
[6] = Table 3, read-out: NCI-H146 Cellular Efficacy H146 EC50

Bcl-XL protein, sequence (Q07817 with tags, fused parts or gaps DEL45-84): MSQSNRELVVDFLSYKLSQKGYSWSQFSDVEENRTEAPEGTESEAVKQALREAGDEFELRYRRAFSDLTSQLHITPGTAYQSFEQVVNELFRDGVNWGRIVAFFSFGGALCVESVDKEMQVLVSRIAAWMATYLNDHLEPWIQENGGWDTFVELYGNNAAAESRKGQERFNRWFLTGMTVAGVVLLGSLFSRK
T1 sequence (P10415 with tags, fused parts or gaps with the stated changes): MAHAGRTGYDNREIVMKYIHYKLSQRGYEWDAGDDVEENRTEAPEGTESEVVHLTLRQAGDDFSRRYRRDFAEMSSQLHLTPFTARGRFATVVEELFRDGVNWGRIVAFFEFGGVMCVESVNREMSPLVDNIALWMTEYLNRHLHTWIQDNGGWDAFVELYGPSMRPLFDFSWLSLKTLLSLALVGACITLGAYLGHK

| Compound | Ki [1] [µM] | Ki [2] [µM] | EC50 [3, 5] [µM] | EC50 [3, 6] [µM] | AUC [4] [nM·h] | Cmax [4] [µM] | AUC(0-inf) [4] [nM·h] |
| --- | --- | --- | --- | --- | --- | --- | --- |
| O=C(NS(=O)(=O)c1ccc(N[C@H](CCN2C3CCC2CC3)CSc2ccccc2)c(S(=O)(=O)C(F)(F)F)c1)c1ccc(N2CCN(CC3=C(c4ccc(Cl)cc4)CCCC3)CC2)cc1 [Example 8, 4-(((1R)-3-(7-azabicyclo[2.2.1]hept-7-yl)-1-((phenylsulfanyl)methyl)propyl)amino)-N-(4-(4-((2-(4-chlorophenyl)cyclohex-1-en-1-yl)methyl)piperazin-1-yl)benzoyl)-3-((trifluoromethyl)sulfonyl)benzenesulfonamide] | ≤ 0.001 | ≤ 0.001 | 0.0212 | 0.021 | 1100 | 0.071 | 1100 |
| O=C(NS(=O)(=O)c1ccc(N[C@H](CCN2CC3CC2CO3)CSc2ccccc2)c(S(=O)(=O)C(F)(F)F)c1)c1ccc(N2CCN(CC3=C(c4ccc(Cl)cc4)CCCC3)CC2)cc1 (stereo partly drawn) [Example 9, N-(4-(4-((2-(4-chlorophenyl)cyclohex-1-en-1-yl)methyl)piperazin-1-yl)benzoyl)-4-(((1R)-3-(2-oxa-5-azabicyclo[2.2.1]hept-5-yl)-1-((phenylsulfanyl)methyl)propyl)amino)-3-((trifluoromethyl)sulfonyl)benzenesulfonamide] | ≤ 0.001 | ≤ 0.001 | 0.0137 | 0.014 | 1880 | 0.156 | 1880 |
| CC1(C)CCC(c2ccc(Cl)cc2)=C(CN2CCN(c3ccc(C(=O)NS(=O)(=O)c4ccc(N[C@H](CCN5CC6CC5CO6)CSc5ccccc5)c(S(=O)(=O)C(F)(F)F)c4)cc3)CC2)C1 (stereo partly drawn) [Example 10, N-(4-(4-((2-(4-chlorophenyl)-5,5-dimethylcyclohex-1-en-1-yl)methyl)piperazin-1-yl)benzoyl)-4-(((1R)-3-(2-oxa-5-azabicyclo[2.2.1]hept-5-yl)-1-((phenylsulfanyl)methyl)propyl)amino)-3-((trifluoromethyl)sulfonyl)benzenesulfonamide] | ≤ 0.001 | ≤ 0.001 | 0.0342 |  |  |  | 2480 |
| CC1(C)CCC(c2ccc(Cl)cc2)=C(CN2CCN(c3ccc(C(=O)NS(=O)(=O)c4ccc(N[C@H](CCN5CC6CC5CO6)CSc5ccccc5)c(S(=O)(=O)C(F)(F)Cl)c4)cc3)CC2)C1 (stereo partly drawn) [Example 11, 3-((chloro(difluoro)methyl)sulfonyl)-N-(4-(4-((2-(4-chlorophenyl)-5,5-dimethylcyclohex-1-en-1-yl)methyl)piperazin-1-yl)benzoyl)-4-(((1R)-3-(2-oxa-5-azabicyclo[2.2.1]hept-5-yl)-1-((phenylsulfanyl)methyl)propyl)amino)benzenesulfonamide] | ≤ 0.002 | ≤ 0.003 | 0.0206 |  |  |  | 2400 |
| O=C(NS(=O)(=O)c1ccc(N[C@H](CCN2CC3CC2CO3)CSc2ccccc2)c(S(=O)(=O)C(F)(F)F)c1)c1ccc(N2CCN(CC3=C(c4ccc(Cl)cc4)CCCCC3)CC2)cc1 (stereo partly drawn) [Example 12, N-(4-(4-((2-(4-chlorophenyl)cyclohept-1-en-1-yl)methyl)piperazin-1-yl)benzoyl)-4-(((1R)-3-(2-oxa-5-azabicyclo[2.2.1]hept-5-yl)-1-((phenylsulfanyl)methyl)propyl)amino)-3-((trifluoromethyl)sulfonyl)benzenesulfonamide] | ≤ 0.001 | ≤ 0.001 | 0.0271 |  |  |  | 2070 |
| O=C(NS(=O)(=O)c1ccc(N[C@H](CCN2CC3CC2CO3)CSc2ccccc2)c(S(=O)(=O)C(F)(F)Cl)c1)c1ccc(N2CCN(CC3=C(c4ccc(Cl)cc4)CCCCC3)CC2)cc1 (stereo partly drawn) [Example 13, 3-((chloro(difluoro)methyl)sulfonyl)-N-(4-(4-((2-(4-chlorophenyl)cyclohept-1-en-1-yl)methyl)piperazin-1-yl)benzoyl)-4-(((1R)-3-(2-oxa-5-azabicyclo[2.2.1]hept-5-yl)-1-((phenylsulfanyl)methyl)propyl)amino)benzenesulfonamide] | ≤ 0.001 | ≤ 0.001 | 0.019 |  |  |  | 2060 |
| CC(C)N(C)CC[C@H](CSc1ccccc1)Nc1ccc(S(=O)(=O)NC(=O)c2ccc(N3CCN(CC4=C(c5ccc(Cl)cc5)CC(C)(C)CC4)CC3)cc2)cc1S(=O)(=O)C(F)(F)F [Example 14, N-(4-(4-((2-(4-chlorophenyl)-4,4-dimethylcyclohex-1-en-1-yl)methyl)piperazin-1-yl)benzoyl)-4-(((1R)-3-(isopropyl(methyl)amino)-1-((phenylsulfanyl)methyl)propyl)amino)-3-((trifluoromethyl)sulfonyl)benzenesulfonamide] | ≤ 0.001 | ≤ 0.001 | 0.0309 |  |  |  | 3420 |
| O=C(NS(=O)(=O)c1ccc(N[C@H](CCN2CCCOCC2)CSc2ccccc2)c(S(=O)(=O)C(F)(F)F)c1)c1ccc(N2CCN(CC3=C(c4ccc(Cl)cc4)CCCC3)CC2)cc1 [Example 15, N-(4-(4-((2-(4-chlorophenyl)cyclohex-1-en-1-yl)methyl)piperazin-1-yl)benzoyl)-4-(((1R)-3-(1,4-oxazepan-4-yl)-1-((phenylsulfanyl)methyl)propyl)amino)-3-((trifluoromethyl)sulfonyl)benzenesulfonamide] | ≤ 0.001 | ≤ 0.001 | 0.0099 |  |  |  | 1250 |
| O=C(NS(=O)(=O)c1ccc(N[C@H](CCN2CCCCCC2)CSc2ccccc2)c(S(=O)(=O)C(F)(F)F)c1)c1ccc(N2CCN(CC3=C(c4ccc(Cl)cc4)CCCC3)CC2)cc1 [Example 16, 4-(((1R)-3-(azepan-1-yl)-1-((phenylsulfanyl)methyl)propyl)amino)-N-(4-(4-((2-(4-chlorophenyl)-1-cyclohex-1-en-1-yl)methyl)piperazin-1-yl)benzoyl)-3-((trifluoromethyl)sulfonyl)benzenesulfonamide] | ≤ 0.002 | ≤ 0.002 | 0.0374 |  |  |  | 2370 |
| CN(C)CC[C@H](CSc1ccccc1)Nc1ccc(S(=O)(=O)NC(=O)c2ccc(N3CCN(CC4=C(c5ccc(Cl)cc5)CCCCC4)CC3)cc2)cc1S(=O)(=O)C(F)(F)F [Example 17, N-(4-(4-((2-(4-chlorophenyl)cyclohept-1-en-1-yl)methyl)piperazin-1-yl)benzoyl)-4-(((1R)-3-(dimethylamino)-1-((phenylsulfanyl)methyl)propyl)amino)-3-((trifluoromethyl)sulfonyl)benzenesulfonamide] | ≤ 0.001 | ≤ 0.001 | 0.0287 |  |  |  | 880 |
